Data published in PubChem BioAssay AID1259407 (Chemical Carcinogenesis Research Information System (CCRIS), 2018).
Activity calls are given as the source filed them. How the calls were made is not given here.

Tested on: CCRIS mutagenicity, Ames/micronucleus/aberration tests
Experiment: CCRIS mutagenicity studies

**Q.** With `Nc1ccccc1N` as the compound, how does the mutagenic call (End Point: IN VITRO CHROMOSOMAL ABERRATIONS, Test System: CHINESE HAMSTER LUNG CELLS (CHL), Metabolic Activation: NONE) read?
**A.** active; positive (structural changes)

**Q.** And the mutagenic call (End Point: IN VITRO CHROMOSOMAL ABERRATIONS, Test System: CHINESE HAMSTER LUNG CELLS (CHL), Metabolic Activation: RAT, LIVER, S-9, KC-400)?
**A.** inactive; negative

**Q.** What about the mutagenic call (End Point: IN VITRO CHROMOSOMAL ABERRATIONS, Test System: CHINESE HAMSTER OVARY CELLS (CHO), Metabolic Activation: NONE) of the same compound?
**A.** active; positive (structural changes)

**Q.** What about the mutagenic call (End Point: IN VITRO CHROMOSOMAL ABERRATIONS, Test System: CHINESE HAMSTER OVARY CELLS (CHO), Metabolic Activation: RAT, LIVER, S-9, AROCLOR 1254) of the same compound?
**A.** active; positive (structural changes)

**Q.** What about the mutagenic call (End Point: IN VITRO CHROMOSOMAL ABERRATIONS, Test System: CHL CELLS, Metabolic Activation: NONE) of the same compound?
**A.** active; positive (structural changes)

**Q.** And the mutagenic call (End Point: IN VITRO CHROMOSOMAL ABERRATIONS, Test System: CHL CELLS, Metabolic Activation: RAT, LIVER, S-9, SODIUM PHENOBARBITAL AND 5,6-BENZOFLAVONE)?
**A.** active; positive (structural changes)

**Q.** What about the mutagenic call (Test System: AMES SALMONELLA TYPHIMURIUM, Strain/Indicator: TA97, Metabolic Activation: HAMSTER, LIVER, S-9, AROCLOR 1254 (10%), Method: PREINCUBATION) of the same compound?
**A.** active; positive

**Q.** What about the mutagenic call (Test System: AMES SALMONELLA TYPHIMURIUM, Strain/Indicator: TA97, Metabolic Activation: NONE, Method: PREINCUBATION) of the same compound?
**A.** inactive; negative

**Q.** What about the mutagenic call (Test System: AMES SALMONELLA TYPHIMURIUM, Strain/Indicator: TA97, Metabolic Activation: RAT, LIVER, S-9, AROCLOR 1254 (10%), Method: PREINCUBATION) of the same compound?
**A.** active; positive

**Q.** And the mutagenic call (Test System: AMES SALMONELLA TYPHIMURIUM, Strain/Indicator: TA98(NR), Metabolic Activation: NONE, Method: PREINCUBATION)?
**A.** inactive; negative

**Q.** What about the mutagenic call (Test System: AMES SALMONELLA TYPHIMURIUM, Strain/Indicator: TA98(NR), Metabolic Activation: RAT, LIVER, S-9, AROCLOR 1254, Method: PREINCUBATION) of the same compound?
**A.** active; positive

**Q.** What about the mutagenic call (Test System: AMES SALMONELLA TYPHIMURIUM, Strain/Indicator: TA98, Metabolic Activation: HAMSTER, LIVER, S-9, AROCLOR 1254 (10%), Method: PREINCUBATION) of the same compound?
**A.** active; positive

**Q.** What about the mutagenic call (Test System: AMES SALMONELLA TYPHIMURIUM, Strain/Indicator: TA98, Metabolic Activation: NONE, Method: STANDARD PLATE) of the same compound?
**A.** inactive; negative

**Q.** What about the mutagenic call (Test System: AMES SALMONELLA TYPHIMURIUM, Strain/Indicator: TA98, Metabolic Activation: PEA APICAL BUD S-9, Method: PREINCUBATION) of the same compound?
**A.** active; positive

**Q.** What about the mutagenic call (Test System: AMES SALMONELLA TYPHIMURIUM, Strain/Indicator: TA98, Metabolic Activation: PEA APICAL BUD S-9, Method: STANDARD PLATE) of the same compound?
**A.** active; positive

**Q.** And the mutagenic call (Test System: AMES SALMONELLA TYPHIMURIUM, Strain/Indicator: TA98, Metabolic Activation: PLANT (PERSEA AMERICANA) S-117, Method: STANDARD PLATE)?
**A.** inactive; negative

**Q.** What about the mutagenic call (Test System: AMES SALMONELLA TYPHIMURIUM, Strain/Indicator: TA98, Metabolic Activation: PLANT (ZEA MAYS) S-9, Method: STANDARD PLATE) of the same compound?
**A.** inactive; negative

**Q.** What about the mutagenic call (Test System: AMES SALMONELLA TYPHIMURIUM, Strain/Indicator: TA98, Metabolic Activation: RAT LIVER S-9, PHENOBARBITAL AND BETA-NAPHTHOFLAVONE, Method: PREINCUBATION) of the same compound?
**A.** active; positive

**Q.** And the mutagenic call (Test System: AMES SALMONELLA TYPHIMURIUM, Strain/Indicator: TA98, Metabolic Activation: RAT, LIVER, S-9, AROCLOR 1254 (10%), Method: PREINCUBATION)?
**A.** active; positive

**Q.** And the mutagenic call (Test System: AMES SALMONELLA TYPHIMURIUM, Strain/Indicator: TA98, Metabolic Activation: RAT, LIVER, S-9, AROCLOR 1254, Method: PREINCUBATION)?
**A.** active; positive

**Q.** And the mutagenic call (Test System: AMES SALMONELLA TYPHIMURIUM, Strain/Indicator: TA98, Metabolic Activation: RAT, LIVER, S-9, AROCLOR 1254, Method: STANDARD PLATE)?
**A.** active; positive

**Q.** What about the mutagenic call (Test System: AMES SALMONELLA TYPHIMURIUM, Strain/Indicator: TA98, Metabolic Activation: RAT, LIVER, S-9, PCB, Method: PREINCUBATION) of the same compound?
**A.** active; positive

**Q.** And the mutagenic call (Test System: AMES SALMONELLA TYPHIMURIUM, Strain/Indicator: TA100(NR), Metabolic Activation: NONE, Method: PREINCUBATION)?
**A.** inactive; negative

**Q.** What about the mutagenic call (Test System: AMES SALMONELLA TYPHIMURIUM, Strain/Indicator: TA100(NR), Metabolic Activation: RAT, LIVER, S-9, AROCLOR 1254, Method: PREINCUBATION) of the same compound?
**A.** active; positive

**Q.** What about the mutagenic call (Test System: AMES SALMONELLA TYPHIMURIUM, Strain/Indicator: TA100, Metabolic Activation: HAMSTER, LIVER, S-9, AROCLOR 1254 (10%), Method: PREINCUBATION) of the same compound?
**A.** active; positive

**Q.** What about the mutagenic call (Test System: AMES SALMONELLA TYPHIMURIUM, Strain/Indicator: TA100, Metabolic Activation: NONE, Method: STANDARD PLATE) of the same compound?
**A.** inactive; negative

**Q.** And the mutagenic call (Test System: AMES SALMONELLA TYPHIMURIUM, Strain/Indicator: TA100, Metabolic Activation: PEA APICAL BUD S-9, Method: PREINCUBATION)?
**A.** active; positive

**Q.** What about the mutagenic call (Test System: AMES SALMONELLA TYPHIMURIUM, Strain/Indicator: TA100, Metabolic Activation: PEA APICAL BUD S-9, Method: STANDARD PLATE) of the same compound?
**A.** active; positive

**Q.** And the mutagenic call (Test System: AMES SALMONELLA TYPHIMURIUM, Strain/Indicator: TA100, Metabolic Activation: PLANT (PERSEA AMERICANA) S-117, Method: STANDARD PLATE)?
**A.** inactive; negative

**Q.** What about the mutagenic call (Test System: AMES SALMONELLA TYPHIMURIUM, Strain/Indicator: TA100, Metabolic Activation: PLANT (ZEA MAYS) S-9, Method: STANDARD PLATE) of the same compound?
**A.** inactive; negative

**Q.** What about the mutagenic call (Test System: AMES SALMONELLA TYPHIMURIUM, Strain/Indicator: TA100, Metabolic Activation: RAT LIVER S-9, PHENOBARBITAL AND BETA-NAPHTHOFLAVONE, Method: PREINCUBATION) of the same compound?
**A.** active; positive

**Q.** And the mutagenic call (Test System: AMES SALMONELLA TYPHIMURIUM, Strain/Indicator: TA100, Metabolic Activation: RAT, LIVER, S-9, AROCLOR 1254 (10%), Method: PREINCUBATION)?
**A.** active; positive

**Q.** What about the mutagenic call (Test System: AMES SALMONELLA TYPHIMURIUM, Strain/Indicator: TA100, Metabolic Activation: RAT, LIVER, S-9, PCB, Method: PREINCUBATION) of the same compound?
**A.** active; positive

**Q.** What about the mutagenic call (Test System: AMES SALMONELLA TYPHIMURIUM, Strain/Indicator: TA1535, Metabolic Activation: HAMSTER, LIVER, S-9, AROCLOR 1254 (10%), Method: PREINCUBATION) of the same compound?
**A.** inactive; negative

**Q.** And the mutagenic call (Test System: AMES SALMONELLA TYPHIMURIUM, Strain/Indicator: TA1535, Metabolic Activation: NONE, Method: PREINCUBATION)?
**A.** inactive; negative

**Q.** What about the mutagenic call (Test System: AMES SALMONELLA TYPHIMURIUM, Strain/Indicator: TA1535, Metabolic Activation: RAT LIVER S-9, PHENOBARBITAL AND BETA-NAPHTHOFLAVONE, Method: PREINCUBATION) of the same compound?
**A.** inactive; negative

**Q.** What about the mutagenic call (Test System: AMES SALMONELLA TYPHIMURIUM, Strain/Indicator: TA1535, Metabolic Activation: RAT, LIVER, S-9, AROCLOR 1254 (10%), Method: PREINCUBATION) of the same compound?
**A.** inactive; negative

**Q.** And the mutagenic call (Test System: AMES SALMONELLA TYPHIMURIUM, Strain/Indicator: TA1537, Metabolic Activation: NONE, Method: PREINCUBATION)?
**A.** inactive; negative

**Q.** What about the mutagenic call (Test System: AMES SALMONELLA TYPHIMURIUM, Strain/Indicator: TA1537, Metabolic Activation: RAT LIVER S-9, PHENOBARBITAL AND BETA-NAPHTHOFLAVONE, Method: PREINCUBATION) of the same compound?
**A.** active; positive

**Q.** And the mutagenic call (Test System: AMES SALMONELLA TYPHIMURIUM, Strain/Indicator: TA1538, Metabolic Activation: RAT, LIVER, S-9, AROCLOR 1254, Method: STANDARD PLATE)?
**A.** active; positive

**Q.** What about the mutagenic call (Test System: AMES SALMONELLA TYPHIMURIUM, Strain/Indicator: TA1538, Metabolic Activation: RAT, LIVER, S-9, PHENOBARBITAL, Method: STANDARD PLATE) of the same compound?
**A.** active; positive

**Q.** And the mutagenic call (Test System: AMES SALMONELLA TYPHIMURIUM, Strain/Indicator: YG1024, Metabolic Activation: PLANT (PERSEA AMERICANA) S-117, Method: STANDARD PLATE)?
**A.** inactive; negative

**Q.** And the mutagenic call (Test System: AMES SALMONELLA TYPHIMURIUM, Strain/Indicator: YG1024, Metabolic Activation: PLANT (ZEA MAYS) S-9, Method: STANDARD PLATE)?
**A.** inactive; negative

**Q.** What about the mutagenic call (Test System: AMES SALMONELLA TYPHIMURIUM, Strain/Indicator: YG1029, Metabolic Activation: PLANT (PERSEA AMERICANA) S-117, Method: STANDARD PLATE) of the same compound?
**A.** inactive; negative

**Q.** What about the mutagenic call (Test System: AMES SALMONELLA TYPHIMURIUM, Strain/Indicator: YG1029, Metabolic Activation: PLANT (ZEA MAYS) S-9, Method: STANDARD PLATE) of the same compound?
**A.** inactive; negative

**Q.** And the mutagenic call (Test System: E.COLI, Strain/Indicator: WP2UVRA, Metabolic Activation: NONE, Method: PREINCUBATION)?
**A.** inactive; negative
